Assay results from US20080009418A1, “Selective Inhibitors” (Alchemia LTD., priority 2004, published 2008).

Key:
Human Melanocortin (MC3) = target: T1, Human Melanocortin (MC3) (Homo sapiens, UniProt P41968); assay: Radioligand binding, human melanocortin MC3 membranes, FlashPlate, [125I]-NDP-αMSH; conditions: compound at 10 μM; for A3 radioligand binding inhibition: human melanocortin MC3 membranes
T1 construct: purchased Perkin Elmer Biosignal
In short: (§1)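 Cloned human receptor membranes were coated onto FlashPlate wells and incubated with radioligand and compound (added from a 0.5 mM DMSO daughter plate) for 1 hour at room temperature in the dark. Scintillation counting gave percent inhibition, with DMSO defining total and reference ligand defining non-specific binding.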

Human μ-opioid (MOP) = target: T2, Human μ-opioid (MOP) (Homo sapiens, UniProt P35372); assay: Radioligand binding, human μ-opioid (MOP) membranes, FlashPlate, [3H]-Naloxone; conditions: compound at 10 μM; for A7 radioligand binding inhibition: human μ-opioid (MOP) membranes
T2 construct: purchased Perkin Elmer Biosignal
T2 sequence (P35372 whole entry): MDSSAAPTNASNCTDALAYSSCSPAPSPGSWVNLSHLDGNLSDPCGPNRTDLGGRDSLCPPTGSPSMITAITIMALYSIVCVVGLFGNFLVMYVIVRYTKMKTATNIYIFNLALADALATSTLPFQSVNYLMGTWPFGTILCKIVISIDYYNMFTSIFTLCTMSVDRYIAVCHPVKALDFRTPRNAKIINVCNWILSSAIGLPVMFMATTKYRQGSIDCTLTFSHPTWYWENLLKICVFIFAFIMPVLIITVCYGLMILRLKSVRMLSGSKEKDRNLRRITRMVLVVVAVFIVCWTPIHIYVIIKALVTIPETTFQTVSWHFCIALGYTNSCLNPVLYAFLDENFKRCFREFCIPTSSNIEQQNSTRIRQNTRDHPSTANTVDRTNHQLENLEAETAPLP
In short: as §1

Human neurokinin (NK1) = target: T3, Human neurokinin (NK1) (Homo sapiens, UniProt P25103); assay: Radioligand binding, human neurokinin NK1 membranes, filtration, [125I]-Substance P; conditions: compound at 10 μM; for A8 radioligand binding inhibition: human neurokinin NK1 membranes
T3 construct: purchased Perkin Elmer Biosignal
T3 sequence (P25103 whole entry): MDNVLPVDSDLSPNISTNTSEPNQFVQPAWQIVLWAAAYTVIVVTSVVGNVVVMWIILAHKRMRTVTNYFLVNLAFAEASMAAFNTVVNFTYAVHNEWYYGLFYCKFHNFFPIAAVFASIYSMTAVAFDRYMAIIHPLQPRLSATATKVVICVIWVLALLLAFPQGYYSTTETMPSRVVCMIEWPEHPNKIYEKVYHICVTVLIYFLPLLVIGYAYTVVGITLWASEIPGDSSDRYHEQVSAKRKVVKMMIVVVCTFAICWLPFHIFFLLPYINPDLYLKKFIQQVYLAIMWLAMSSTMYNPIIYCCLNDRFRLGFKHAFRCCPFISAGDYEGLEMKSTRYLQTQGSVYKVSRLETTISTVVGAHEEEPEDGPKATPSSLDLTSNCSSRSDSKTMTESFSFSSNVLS
In short: (§2)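 Percent inhibition of radioligand binding measured on recombinant human membranes: NK1 with [125I]-Substance P, KOP with [3H]-Diprenorphine. Incubation 1 h at room temperature, then harvest onto 0.3% PEI-soaked filters, cold Tris-HCl pH 7.4 washes and scintillation counting; non-specific binding from reference ligand wells.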

Human δ-opioid (DOP) = target: T4, Human δ-opioid (DOP) (Homo sapiens, UniProt P41143); assay: Radioligand binding, human δ-opioid (DOP) membranes, FlashPlate, [3H]-Bremazocine; conditions: compound at 10 μM; for A1 radioligand binding inhibition: human δ-opioid (DOP) membranes
T4 construct: purchased Perkin Elmer Biosignal
T4 sequence (P41143 whole entry): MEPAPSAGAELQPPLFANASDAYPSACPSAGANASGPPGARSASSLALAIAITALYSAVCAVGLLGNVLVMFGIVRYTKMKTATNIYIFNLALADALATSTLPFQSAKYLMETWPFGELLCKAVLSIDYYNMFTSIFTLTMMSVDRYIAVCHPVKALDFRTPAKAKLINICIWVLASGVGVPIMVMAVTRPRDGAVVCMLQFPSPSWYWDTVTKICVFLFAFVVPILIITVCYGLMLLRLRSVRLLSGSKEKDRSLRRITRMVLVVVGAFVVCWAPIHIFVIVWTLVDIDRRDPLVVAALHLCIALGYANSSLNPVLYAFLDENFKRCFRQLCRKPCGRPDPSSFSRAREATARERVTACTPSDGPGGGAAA
In short: as §1

[1] = target: T5, Human melanin-concentrating hormone (MCH1) (Homo sapiens, UniProt Q99705); assay: Radioligand binding, human melanin-concentrating hormone MCH1 membranes, FlashPlate, [125I]-S36057; conditions: compound at 10 μM; for A6 radioligand binding inhibition: human MCH1 membranes
T5 construct: purchased Perkin Elmer Biosignal
T5 sequence (Q99705 whole entry): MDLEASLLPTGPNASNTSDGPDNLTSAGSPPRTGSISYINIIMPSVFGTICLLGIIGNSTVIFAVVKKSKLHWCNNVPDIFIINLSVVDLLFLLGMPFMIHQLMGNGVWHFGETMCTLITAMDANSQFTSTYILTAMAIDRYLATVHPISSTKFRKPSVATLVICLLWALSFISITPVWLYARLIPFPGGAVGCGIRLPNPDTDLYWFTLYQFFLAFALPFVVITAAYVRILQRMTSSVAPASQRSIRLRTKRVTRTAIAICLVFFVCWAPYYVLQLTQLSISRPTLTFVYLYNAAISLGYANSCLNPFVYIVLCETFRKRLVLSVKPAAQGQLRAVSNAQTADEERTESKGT
In short: as §1

[2] = target: T6, Human neuropeptide Y (NPY-Y1) (Homo sapiens, UniProt P25929); assay: Radioligand binding, human neuropeptide Y NPY-Y1 membranes, FlashPlate, [125I]-PYY; conditions: compound at 10 μM; for A9 radioligand binding inhibition: human NPY-Y1 membranes
T6 construct: purchased Perkin Elmer Biosignal
T6 sequence (P25929 1-384): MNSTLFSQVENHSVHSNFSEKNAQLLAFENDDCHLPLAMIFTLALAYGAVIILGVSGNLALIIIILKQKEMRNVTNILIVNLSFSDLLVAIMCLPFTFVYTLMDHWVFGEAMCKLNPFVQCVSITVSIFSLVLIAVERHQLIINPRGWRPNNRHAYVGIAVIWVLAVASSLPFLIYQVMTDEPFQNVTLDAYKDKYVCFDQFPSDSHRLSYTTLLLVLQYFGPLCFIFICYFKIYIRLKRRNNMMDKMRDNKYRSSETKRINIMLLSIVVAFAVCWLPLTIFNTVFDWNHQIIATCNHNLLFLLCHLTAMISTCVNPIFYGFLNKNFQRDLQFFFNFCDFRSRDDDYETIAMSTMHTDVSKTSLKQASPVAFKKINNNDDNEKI
In short: as §1

Human κ-Opioid (KOP) = target: T7, Human κ-Opioid (KOP) (Homo sapiens, UniProt P41145); assay: Radioligand binding, human κ-opioid (KOP) membranes, filtration, [3H]-Diprenorphine; conditions: compound at 10 μM; for A2 radioligand binding inhibition: human κ-opioid (KOP) membranes
T7 construct: purchased Perkin Elmer Biosignal
T7 sequence (P41145 whole entry): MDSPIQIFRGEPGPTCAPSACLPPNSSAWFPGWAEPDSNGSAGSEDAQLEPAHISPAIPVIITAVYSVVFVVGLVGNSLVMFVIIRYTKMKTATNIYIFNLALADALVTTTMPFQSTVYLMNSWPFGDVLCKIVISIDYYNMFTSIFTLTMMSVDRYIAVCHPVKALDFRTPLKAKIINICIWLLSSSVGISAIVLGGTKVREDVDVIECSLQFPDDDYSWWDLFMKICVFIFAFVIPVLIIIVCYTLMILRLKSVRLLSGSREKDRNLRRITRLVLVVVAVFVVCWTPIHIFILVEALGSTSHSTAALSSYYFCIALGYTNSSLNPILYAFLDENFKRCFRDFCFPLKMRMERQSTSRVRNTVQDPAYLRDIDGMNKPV
In short: as §2

Human melanocortin (MC5) = target: T8, Human melanocortin (MC5) (Homo sapiens, UniProt P33032); assay: Radioligand binding, human melanocortin MC5 membranes, FlashPlate, [125I]-NDP-αMSH; conditions: compound at 10 μM; for A5 radioligand binding inhibition: human melanocortin MC5 membranes
T8 construct: purchased Perkin Elmer Biosignal
T8 sequence (P33032 whole entry): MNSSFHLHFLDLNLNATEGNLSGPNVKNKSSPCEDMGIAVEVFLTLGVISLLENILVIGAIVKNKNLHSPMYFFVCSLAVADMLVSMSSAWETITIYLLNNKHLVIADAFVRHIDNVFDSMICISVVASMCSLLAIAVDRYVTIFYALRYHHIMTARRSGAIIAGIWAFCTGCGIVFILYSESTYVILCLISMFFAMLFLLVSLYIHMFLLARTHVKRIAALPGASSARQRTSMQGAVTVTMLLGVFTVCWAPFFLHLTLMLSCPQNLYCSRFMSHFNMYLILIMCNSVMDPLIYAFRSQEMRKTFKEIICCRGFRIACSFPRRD
In short: as §1

Mouse urotensin (mUR2) = target: T9, Mouse urotensin (mUR2) (Mus musculus, UniProt Q8VIH9); assay: Radioligand binding, mouse urotensin mUR2 membranes, FlashPlate, [125I]-Urotensin II; conditions: compound at 10 μM; for A11 radioligand binding inhibition: mouse urotensin mUR2 membranes
T9 construct: purchased Perkin Elmer Biosignal
T9 sequence (Q8VIH9 1-385): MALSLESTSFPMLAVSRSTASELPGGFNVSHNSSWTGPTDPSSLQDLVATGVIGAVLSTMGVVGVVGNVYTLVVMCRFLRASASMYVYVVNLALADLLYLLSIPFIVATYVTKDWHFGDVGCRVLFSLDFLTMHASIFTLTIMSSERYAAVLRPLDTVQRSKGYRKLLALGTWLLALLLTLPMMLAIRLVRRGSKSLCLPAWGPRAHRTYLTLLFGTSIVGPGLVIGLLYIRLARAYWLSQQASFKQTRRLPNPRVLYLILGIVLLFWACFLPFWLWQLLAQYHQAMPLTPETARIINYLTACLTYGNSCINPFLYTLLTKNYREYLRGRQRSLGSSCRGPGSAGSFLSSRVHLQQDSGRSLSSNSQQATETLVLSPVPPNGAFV
In short: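 Cloned mouse urotensin (mUR2) receptor membranes from Perkin Elmer Biosignal were immobilized in FlashPlate microplates using a proprietary coating. Each well got 19.5 μl buffer, then 0.5 μl of DMSO, reference ligand, or compound. Adding 5 μl of [125I]-Urotensin II, diluted to 5× final concentration in binding buffer, started binding. Plates were sealed with TopSeal-A and incubated 1 hour at room temperature in the dark. Wells were counted for 30 seconds each on a TopCount after a 60-second delay, and percentage inhibition was calculated.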

Human opioid (ORL1) = target: T10, Human opioid (ORL1) (Homo sapiens, UniProt P41146); assay: Radioligand binding, human opioid ORL1 membranes, FlashPlate, [125I]-Nociceptin; conditions: compound at 10 μM; for A10 radioligand binding inhibition: human ORL1 membranes
T10 construct: purchased Perkin Elmer Biosignal
T10 sequence (P41146 whole entry): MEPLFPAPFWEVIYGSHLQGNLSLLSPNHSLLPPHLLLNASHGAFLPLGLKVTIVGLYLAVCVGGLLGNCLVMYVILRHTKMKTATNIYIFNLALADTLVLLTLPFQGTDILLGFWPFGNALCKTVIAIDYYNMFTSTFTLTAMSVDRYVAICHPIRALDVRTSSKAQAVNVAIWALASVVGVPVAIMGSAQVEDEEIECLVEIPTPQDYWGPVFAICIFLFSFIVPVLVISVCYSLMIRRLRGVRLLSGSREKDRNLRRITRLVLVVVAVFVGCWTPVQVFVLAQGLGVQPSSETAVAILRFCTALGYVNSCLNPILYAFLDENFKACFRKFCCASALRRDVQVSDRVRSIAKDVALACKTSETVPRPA
In short: as §1

Human Melanocortin (MC4) = target: T11, Human Melanocortin (MC4) (Homo sapiens, UniProt P32245); assay: Radioligand binding, human melanocortin MC4 membranes, FlashPlate, [125I]-NDP-αMSH; conditions: compound at 10 μM; for A4 radioligand binding inhibition: human melanocortin MC4 membranes
T11 construct: purchased Perkin Elmer Biosignal
T11 sequence (P32245 whole entry): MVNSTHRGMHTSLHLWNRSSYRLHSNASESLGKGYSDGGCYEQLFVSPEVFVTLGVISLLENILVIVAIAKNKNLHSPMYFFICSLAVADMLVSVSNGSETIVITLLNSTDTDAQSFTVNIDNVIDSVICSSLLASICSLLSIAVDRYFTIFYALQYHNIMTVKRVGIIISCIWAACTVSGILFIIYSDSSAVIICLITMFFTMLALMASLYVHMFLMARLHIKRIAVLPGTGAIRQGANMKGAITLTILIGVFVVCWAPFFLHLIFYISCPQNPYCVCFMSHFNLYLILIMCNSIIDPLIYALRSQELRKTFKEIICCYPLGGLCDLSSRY
In short: as §1

T1 sequence (P41968 whole entry): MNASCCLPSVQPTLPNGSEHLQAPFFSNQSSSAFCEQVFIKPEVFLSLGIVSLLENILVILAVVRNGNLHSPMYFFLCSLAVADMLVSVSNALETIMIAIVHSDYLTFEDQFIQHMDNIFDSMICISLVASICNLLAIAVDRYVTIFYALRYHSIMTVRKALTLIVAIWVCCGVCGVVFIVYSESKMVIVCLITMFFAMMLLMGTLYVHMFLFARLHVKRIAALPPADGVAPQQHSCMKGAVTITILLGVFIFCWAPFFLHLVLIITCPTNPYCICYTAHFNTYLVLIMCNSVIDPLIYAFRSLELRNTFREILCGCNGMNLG

## COC[C@H]1OC(OCc2ccc(Cl)cc2)[C@H](NC(=O)CCCNC(=N)N)[C@@H](OCc2ccc(Cl)cc2)[C@@H]1O (stereo partly drawn) [compound 39]
Human Melanocortin (MC3)
  A3 radioligand binding inhibition: − (“−” indicates less than 50% inhibition at 10 μM)
Human μ-opioid (MOP)
  A7 radioligand binding inhibition: − (“−” indicates less than 50% inhibition at 10 μM)
Human neurokinin (NK1)
  A8 radioligand binding inhibition: + (“+” indicates greater than 50% inhibition at 10 μM)
Human δ-opioid (DOP)
  A1 radioligand binding inhibition: − (“−” indicates less than 50% inhibition at 10 μM)
[1]
  A6 radioligand binding inhibition: + (“+” indicates greater than 50% inhibition at 10 μM)
[2]
  A9 radioligand binding inhibition: − (“−” indicates less than 50% inhibition at 10 μM)
Human κ-Opioid (KOP)
  A2 radioligand binding inhibition: − (“−” indicates less than 50% inhibition at 10 μM)
Human melanocortin (MC5)
  A5 radioligand binding inhibition: − (“−” indicates less than 50% inhibition at 10 μM)
Mouse urotensin (mUR2)
  A11 radioligand binding inhibition: − (“−” indicates less than 50% inhibition at 10 μM)
Human opioid (ORL1)
  A10 radioligand binding inhibition: − (“−” indicates less than 50% inhibition at 10 μM)
Human Melanocortin (MC4)
  A4 radioligand binding inhibition: − (“−” indicates less than 50% inhibition at 10 μM)

## COCC1OC(OCc2ccc3ccccc3c2)C(NC(=O)CCNC(=N)N)C(OCc2ccc(Cl)cc2)C1O (stereo not drawn) [compound 238]
Human Melanocortin (MC3); [125I]-NDP-αMSH, FlashPlate
  A3: inhibition of radioligand binding: + (“+” indicates greater than 50% inhibition at 10 μM)
Human μ-opioid (MOP); [3H]-Naloxone, FlashPlate
  A7: inhibition of radioligand binding: − (“−” indicates less than 50% inhibition at 10 μM)
Human neurokinin (NK1); [125I]-Substance P, filtration
  A8: inhibition of radioligand binding: + (“+” indicates greater than 50% inhibition at 10 μM)
Human δ-opioid (DOP); [3H]-Bremazocine, FlashPlate
  A1: inhibition of radioligand binding: + (“+” indicates greater than 50% inhibition at 10 μM)
[1]; [125I]-S36057, FlashPlate
  A6: inhibition of radioligand binding: + (“+” indicates greater than 50% inhibition at 10 μM)
[2]; [125I]-PYY, FlashPlate
  A9: inhibition of radioligand binding: − (“−” indicates less than 50% inhibition at 10 μM)
Human κ-Opioid (KOP); [3H]-Diprenorphine, filtration
  A2: inhibition of radioligand binding: − (“−” indicates less than 50% inhibition at 10 μM)
Human melanocortin (MC5); [125I]-NDP-αMSH, FlashPlate
  A5: inhibition of radioligand binding: + (“+” indicates greater than 50% inhibition at 10 μM)
Mouse urotensin (mUR2); [125I]-Urotensin II, FlashPlate
  A11: inhibition of radioligand binding: − (“−” indicates less than 50% inhibition at 10 μM)
Human opioid (ORL1); [125I]-Nociceptin, FlashPlate
  A10: inhibition of radioligand binding: + (“+” indicates greater than 50% inhibition at 10 μM)
Human Melanocortin (MC4); [125I]-NDP-αMSH, FlashPlate
  A4: inhibition of radioligand binding: + (“+” indicates greater than 50% inhibition at 10 μM)

## COC[C@H]1OC(OCc2ccc3ccccc3c2)[C@H](NC(=O)CCCN)[C@@H](OCc2ccccc2)[C@@H]1O (stereo partly drawn) [compound 20]
Human Melanocortin (MC3)
  A3 radioligand binding inhibition: − (“−” indicates less than 50% inhibition at 10 μM)
Human μ-opioid (MOP)
  A7 radioligand binding inhibition: − (“−” indicates less than 50% inhibition at 10 μM)
Human neurokinin (NK1)
  A8 radioligand binding inhibition: + (“+” indicates greater than 50% inhibition at 10 μM)
Human δ-opioid (DOP)
  A1 radioligand binding inhibition: − (“−” indicates less than 50% inhibition at 10 μM)
[1]
  A6 radioligand binding inhibition: − (“−” indicates less than 50% inhibition at 10 μM)
[2]
  A9 radioligand binding inhibition: − (“−” indicates less than 50% inhibition at 10 μM)
Human κ-Opioid (KOP)
  A2 radioligand binding inhibition: − (“−” indicates less than 50% inhibition at 10 μM)
Human melanocortin (MC5)
  A5 radioligand binding inhibition: − (“−” indicates less than 50% inhibition at 10 μM)
Mouse urotensin (mUR2)
  A11 radioligand binding inhibition: − (“−” indicates less than 50% inhibition at 10 μM)
Human opioid (ORL1)
  A10 radioligand binding inhibition: − (“−” indicates less than 50% inhibition at 10 μM)
Human Melanocortin (MC4)
  A4 radioligand binding inhibition: − (“−” indicates less than 50% inhibition at 10 μM)
